Data as given in patent publication US10856562B2, “Flavor composition and edible compositions containing same” (MARS, INCORPORATED, priority 2013, dated 2020).
Square brackets hold non-standard residues; d marks the D form. Ends that are not written are not given here. pGlu = O=C1CC[C@@H](C(=O)O)N1

Test system: panelists
Assay: Attribute perception scores of flavor enhancers in solution (Example 6)
Assay type: in vivo, human
Parameters: key to Metallic / Numbing / Atringent / Salt / Sweet / Sour / Bitter / Umami / Sour, mean evaluation score in solution / Numbing, mean evaluation score in solution / Astringent / Umami FF: 15-point intensity scale, 0 = none, 15 = very strong
Conditions: for Astringent, mean evaluation score in solution / Bitter, mean evaluation score in solution / Flinty/Mineral, mean evaluation score in solution / Metallic, mean evaluation score in solution / Numbing, mean evaluation score in solution / Salt, mean evaluation score in solution / Sour, mean evaluation score in solution / Sweet, mean evaluation score in solution / Umami FF, mean evaluation score in solution / Umami, mean evaluation score in solution / Atringent / Bitter / Metallic / Mineral/Flinty / Numbing / Salt / Sour / Sweet / Umami / Umami/brothy: 15-point scale; for Atringent / Bitter / Metallic / Mineral/Flinty / Numbing / Salt / Sour / Sweet / Umami / Umami/brothy: solution
[1] = 1.0 ppb in solution (NaCl, water)
[2] = 1.0 to 100 ppb, listed as UE 30
[3] = 10.0 ppb in solution (NaCl, water)
[4] = 100.0 ppb in solution (NaCl, water)

[pGlu]-Val-Cys [UE-30] was tested, and the “Astringent, mean evaluation score in solution” value (shortened to “Astringent … in solution”) [1] was 0.0, the “Bitter, mean evaluation score in solution” value (“Bitter … in solution” below) [1] was 0.0 and the “Flinty/Mineral, mean evaluation score in solution” value (from here on “Flinty/Mineral … in solution”) [1] was 0.4. The “Metallic, mean evaluation score in solution” value (shortened to “Metallic … in solution”) [1] was 0.0, the “Numbing, mean evaluation score in solution” value (from here on “Numbing … in solution”) [1] was 0.0 and the “Salt, mean evaluation score in solution” value [1] was 1.2. The “Sour, mean evaluation score in solution” value [1] was 0.0, the “Sweet, mean evaluation score in solution” value [1] was 0.0 and the “Umami FF, mean evaluation score in solution” value (“Umami FF” below) [1] was 0.1. The “Umami, mean evaluation score in solution” value [1] was 0.0, the “Mineral/Flinty aromatic in solution as the concentration increases” value (1.0 to 100 ppb) was “increases” and the “Salt perception level in solution as the concentration increases” value (1.0 to 100 ppb) was “increases slightly”. The “Umami aromatic in solution as the concentration increases” value (1.0 to 100 ppb) was “shows no distinct pattern”, the “Umami feeling factor in solution as the concentration increases” value (1.0 to 100 ppb) was “increases” and the “Mineral/Flinty aromatic in solution as the concentration increases” value [2] was “increase slightly”. The “Salt perception level in solution as the concentration increases” value [2] was “increase slightly”, the “Astringent … in solution” value [3] was 0.0 and the “Bitter … in solution” value [3] was 0.0. The “Flinty/Mineral … in solution” value [3] was 0.8, the “Metallic … in solution” value [3] was 0.0 and the “Numbing … in solution” value [3] was 0.0. For the same substance, the “Salt, mean evaluation score in solution” value [3] was 1.5, the “Sour, mean evaluation score in solution” value [3] was 0.0 and the “Sweet, mean evaluation score in solution” value [3] was 0.0. For the same substance, the “Umami FF” value [3] was 0.6, the “Umami, mean evaluation score in solution” value [3] was 0.4 and the “Astringent … in solution” value [4] was 0.0. The “Bitter … in solution” value [4] was 0.7, the “Flinty/Mineral … in solution” value [4] was 1.1 and the “Metallic … in solution” value [4] was 0.0. For the same substance, the “Numbing … in solution” value [4] was 0.0, the “Salt, mean evaluation score in solution” value [4] was 1.8 and the “Sour, mean evaluation score in solution” value [4] was 0.0. For the same substance, the “Sweet, mean evaluation score in solution” value [4] was 0.0, the “Umami FF” value [4] was 2.1 and the “Umami, mean evaluation score in solution” value [4] was 0.1. It also gave an Atringent (Concentration 1, MAX) of 0.0, a Bitter (Concentration 1, MAX) of 0.0 and a Metallic (Concentration 1, MAX) of 0.0. For the same substance, the Mineral/Flinty (Concentration 1, MAX) was 0.5, the Numbing (Concentration 1, MAX) was 0.0 and the Salt (Concentration 1, MAX) was 1.5. It also gave a Sour (Concentration 1, MAX) of 0.0, a Sweet (Concentration 1, MAX) of 0.0 and a Umami (Concentration 1, MAX) of 0.5. The Umami/brothy (Concentration 1, MAX) was 0.0, the Atringent (Concentration 1, MEAN) was 0.0 and the Bitter (Concentration 1, MEAN) was 0.0. It also gave a Metallic (Concentration 1, MEAN) of 0.0, a Mineral/Flinty (Concentration 1, MEAN) of 0.4 and a Numbing (Concentration 1, MEAN) of 0.0. It also gave a Salt (Concentration 1, MEAN) of 1.2, a Sour (Concentration 1, MEAN) of 0.0 and a Sweet (Concentration 1, MEAN) of 0.0. The Umami (Concentration 1, MEAN) was 0.1, the Umami/brothy (Concentration 1, MEAN) was 0.0 and the Atringent (Concentration 1, MIN) was 0.0. For the same substance, the Bitter (Concentration 1, MIN) was 0.0, the Metallic (Concentration 1, MIN) was 0.0 and the Mineral/Flinty (Concentration 1, MIN) was 0.0. It also gave a Numbing (Concentration 1, MIN) of 0.0, a Salt (Concentration 1, MIN) of 1.0 and a Sour (Concentration 1, MIN) of 0.0. It also gave a Sweet (Concentration 1, MIN) of 0.0, a Umami (Concentration 1, MIN) of 0.0 and a Umami/brothy (Concentration 1, MIN) of 0.0. For the same substance, the Atringent (Concentration 10, MAX) was 0.0, the Bitter (Concentration 10, MAX) was 0.0 and the Metallic (Concentration 10, MAX) was 0.0. It also gave a Mineral/Flinty (Concentration 10, MAX) of 1.0, a Numbing (Concentration 10, MAX) of 0.0 and a Salt (Concentration 10, MAX) of 2.0. For the same substance, the Sour (Concentration 10, MAX) was 0.0, the Sweet (Concentration 10, MAX) was 0.0 and the Umami (Concentration 10, MAX) was 1.0. For the same substance, the Umami/brothy (Concentration 10, MAX) was 0.8, the Atringent (Concentration 10, MEAN) was 0.0 and the Bitter (Concentration 10, MEAN) was 0.0. The Metallic (Concentration 10, MEAN) was 0.0, the Mineral/Flinty (Concentration 10, MEAN) was 0.8 and the Numbing (Concentration 10, MEAN) was 0.0. The Salt (Concentration 10, MEAN) was 1.5, the Sour (Concentration 10, MEAN) was 0.0 and the Sweet (Concentration 10, MEAN) was 0.0. It also gave a Umami (Concentration 10, MEAN) of 0.6, a Umami/brothy (Concentration 10, MEAN) of 0.4 and an Atringent (Concentration 10, MIN) of 0.0. For the same substance, the Bitter (Concentration 10, MIN) was 0.0, the Metallic (Concentration 10, MIN) was 0.0 and the Mineral/Flinty (Concentration 10, MIN) was 0.0. The Numbing (Concentration 10, MIN) was 0.0, the Salt (Concentration 10, MIN) was 1.0 and the Sour (Concentration 10, MIN) was 0.0. The Sweet (Concentration 10, MIN) was 0.0, the Umami (Concentration 10, MIN) was 0.0 and the Umami/brothy (Concentration 10, MIN) was 0.0. For the same substance, the Atringent (Concentration 100, MAX) was 0.0, the Bitter (Concentration 100, MAX) was 1.5 and the Metallic (Concentration 100, MAX) was 0.0. It also gave a Mineral/Flinty (Concentration 100, MAX) of 1.5, a Numbing (Concentration 100, MAX) of 0.0 and a Salt (Concentration 100, MAX) of 2.0. For the same substance, the Sour (Concentration 100, MAX) was 0.0, the Sweet (Concentration 100, MAX) was 0.0 and the Umami (Concentration 100, MAX) was 3.0. The Umami/brothy (Concentration 100, MAX) was 0.5, the Atringent (Concentration 100, MEAN) was 0.0 and the Bitter (Concentration 100, MEAN) was 0.7. For the same substance, the Metallic (Concentration 100, MEAN) was 0.0, the Mineral/Flinty (Concentration 100, MEAN) was 1.1 and the Numbing (Concentration 100, MEAN) was 0.0. It also gave a Salt (Concentration 100, MEAN) of 1.8, a Sour (Concentration 100, MEAN) of 0.0 and a Sweet (Concentration 100, MEAN) of 0.0. The Umami (Concentration 100, MEAN) was 2.1, the Umami/brothy (Concentration 100, MEAN) was 0.1 and the Atringent (Concentration 100, MIN) was 0.0. For the same substance, the Bitter (Concentration 100, MIN) was 0.0, the Metallic (Concentration 100, MIN) was 0.0 and the Mineral/Flinty (Concentration 100, MIN) was 0.8. The Numbing (Concentration 100, MIN) was 0.0, the Salt (Concentration 100, MIN) was 1.0 and the Sour (Concentration 100, MIN) was 0.0. For the same substance, the Sweet (Concentration 100, MIN) was 0.0, the Umami (Concentration 100, MIN) was 1.5 and the Umami/brothy (Concentration 100, MIN) was 0.0.
